The subject of this test is HCV genotype 1b replicon in Huh 7 cells. Briefly: HCV replicon assay (1b_Huh-Luc/Neo-ET cell line, luciferase readout). The class given is cell-based. The following applies: Hepatitis C virus; Table 1; genotype 1b replicon, Huh 7 cells, 72 h, luciferase; read-out: Inhibition of HCV genotype 1b. The essentials:
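Huh 7 cells carrying a bicistronic genotype 1b luciferase replicon were treated with compound in triplicate the day after plating and incubated 72 h. Luciferase activity expressed as % of untreated control; EC50 from a four-parameter logistic fit, repeated several times.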
Background: In antiviral work, replicon cells carry a viral genome segment that copies itself.

Molecules are shown by their SMILES.

As for `COC(=O)N[C@H](C(=O)N1CCC[C@H]1c1ncc(-c2ccc(-c3nc4cc(-c5cnc([C@@H]6CCCN6C(=O)[C@@H](NC(=O)OC)C6CC6)[nH]5)ccc4o3)cc2)[nH]1)C1CC1` [compound 239], the EC50 was less than 1 nM.
The value for `COC(=O)N[C@H](C(=O)N1CCC[C@H]1c1ncc(-c2ccc(-c3nc4cc(-c5cnc([C@@H]6CCCN6C(=O)[C@@H](NC(=O)OC)C(C)C)[nH]5)ccc4s3)cc2)[nH]1)C(C)C` [compound 240] was less than 1 nM.
The value for `COC(=O)N[C@H](C(=O)N1CCC[C@H]1c1ncc(-c2ccc(-c3nc4ccc(-c5cnc([C@@H]6CCCN6C(=O)[C@H](NC(=O)OC)c6ccccc6)[nH]5)cc4s3)cc2)[nH]1)C(C)C` [compound 241] was less than 1 nM; that for `COC(=O)N[C@H](C(=O)N1CCC[C@H]1c1ncc(-c2ccc(-c3nc4ccc(-c5cnc([C@@H]6CCCN6C(=O)[C@H](NC(=O)OC(C)(C)C)c6ccccc6)[nH]5)cc4s3)cc2)[nH]1)C(C)C` [compound 242] was less than 1 nM.
The same measure for `COC(=O)N[C@H](C(=O)N1CCCC[C@H]1c1ncc(-c2ccc(-c3nc4ccc(-c5cnc([C@@H]6CCCCN6C(=O)[C@@H](NC(=O)OC)C(C)C)[nH]5)cc4s3)cc2)[nH]1)C(C)C` [compound 243]: less than 1 nM; for `CCNC(=O)N[C@@H](C(=O)N1CCC[C@H]1c1ncc(-c2ccc3nc(-c4ccc(-c5cnc([C@@H]6CCCN6C(=O)[C@@H](NC(=O)OC)C(C)C)[nH]5)cc4)sc3c2)[nH]1)c1ccccc1` [compound 244]: less than 1 nM; for `CNC(=O)N[C@@H](C(=O)N1CCC[C@H]1c1ncc(-c2ccc3nc(-c4ccc(-c5cnc([C@@H]6CCCN6C(=O)[C@@H](NC(=O)OC)C(C)C)[nH]5)cc4)sc3c2)[nH]1)c1ccccc1` [compound 245]: less than 1 nM.
On to `COC(=O)N[C@H](C(=O)N1CCC[C@H]1c1ncc(-c2ccc(-c3nc4ccc(-c5cnc([C@@H]6CCCN6C(=O)OCc6ccccc6)[nH]5)cc4s3)cc2)[nH]1)C(C)C` [compound 246], for which the EC50 is less than 1 nM.
The value for `COC(=O)N[C@H](C(=O)N1CCC[C@H]1c1ncc(-c2ccc(-c3nc4ccc(-c5cnc([C@@H]6CCCN6C(=O)[C@H](NC(=O)OC(C)(C)C)c6ccccc6)[nH]5)cc4o3)cc2)[nH]1)C(C)C` [compound 247] was less than 1 nM; that for `COC(=O)N[C@@H](C(=O)N1CCCC[C@H]1c1ncc(-c2ccc(-c3nc4ccc(-c5cnc([C@@H]6CCCCN6C(=O)[C@H](NC(=O)OC)c6ccccc6)[nH]5)cc4s3)cc2)[nH]1)c1ccccc1` [compound 248] was less than 1 nM; that for `COC(=O)N[C@H](C(=O)N1CCC[C@H]1c1ncc(-c2ccc(-c3nc4ccc(-c5cnc([C@@H]6CCCN6C(=O)[C@H](NC(=O)OC)c6ccccc6)[nH]5)cc4o3)cc2)[nH]1)C(C)C` [compound 249] was less than 1 nM.
The same measure for `CC(C)(C)OC(=O)N1CCCC1c1ncc(-c2ccc(-c3nc4cc(-c5cnc([C@@H]6CCCN6C(=O)OCc6ccccc6)[nH]5)ccc4s3)cc2)[nH]1` (some centres unmarked) [compound 250]: 10 to 999 nM.
The same measure for `CNC(=O)N[C@@H](C(=O)N1CCC[C@H]1c1ncc(-c2ccc3nc(-c4ccc(-c5cnc([C@@H]6CCCN6C(=O)[C@@H](NC(=O)OC)C(C)C)[nH]5)cc4)oc3c2)[nH]1)c1ccccc1` [compound 251]: less than 1 nM; for `CCNC(=O)N[C@@H](C(=O)N1CCC[C@H]1c1ncc(-c2ccc3nc(-c4ccc(-c5cnc([C@@H]6CCCN6C(=O)[C@@H](NC(=O)OC)C(C)C)[nH]5)cc4)oc3c2)[nH]1)c1ccccc1` [compound 252]: less than 1 nM; for `COC(=O)N[C@H](C(=O)N1CCC[C@H]1c1ncc(-c2ccc(-c3nc4ccc(-c5cnc([C@@H]6CCCN6C(=O)[C@@H](NC(=O)OC)[C@@H](C)OC)[nH]5)cc4o3)cc2)[nH]1)C(C)C` [compound 253]: less than 1 nM.
Consider `COC(=O)N[C@H](C(=O)N1CCC[C@H]1c1ncc(-c2ccc3nc(-c4ccc(-c5cnc([C@@H]6CCCN6C(=O)[C@H](NC(=O)OC(C)(C)C)c6ccccc6)[nH]5)cc4)oc3c2)[nH]1)C(C)C` [compound 254], for which the EC50 is less than 1 nM.
The value for `COC(=O)N[C@H](C(=O)N1CCC[C@H]1c1ncc(-c2ccc3nc(-c4ccc(-c5cnc([C@@H]6CCCN6C(=O)[C@H](NC(=O)OC)c6ccccc6)[nH]5)cc4)oc3c2)[nH]1)C(C)C` [compound 255] was less than 1 nM; that for `CNC(=O)N[C@@H](C(=O)N1CCC[C@H]1c1ncc(-c2ccc(-c3nc4ccc(-c5cnc([C@@H]6CCCN6C(=O)[C@@H](NC(=O)OC)C(C)C)[nH]5)cc4o3)cc2)[nH]1)c1ccccc1` [compound 256] was less than 1 nM.
As to `CCNC(=O)N[C@@H](C(=O)N1CCC[C@H]1c1ncc(-c2ccc(-c3nc4ccc(-c5cnc([C@@H]6CCCN6C(=O)[C@@H](NC(=O)OC)C(C)C)[nH]5)cc4o3)cc2)[nH]1)c1ccccc1` [compound 257], the EC50 was less than 1 nM.
The same measure for `COC(=O)N[C@H](C(=O)N1CCC[C@H]1c1ncc(-c2ccc(-c3ccc4nc(-c5cnc([C@@H]6CCCN6C(=O)[C@@H](NC(=O)OC)C(C)C)[nH]5)sc4c3)cc2)[nH]1)C(C)C` [compound 258]: less than 1 nM.
In the case of `COC(=O)N[C@H](C(=O)N1CCC[C@H]1c1ncc(-c2ccc3oc(-c4ccc(-c5cnc([C@@H]6CCCN6C(=O)[C@@H](NC(=O)OC)C6CCOCC6)[nH]5)cc4)nc3c2)[nH]1)C(C)C` [compound 259], the EC50 was less than 1 nM.
The value for `COC(=O)N[C@H](C(=O)N1CCC[C@H]1c1ncc(-c2ccc3oc(-c4ccc(-c5cnc([C@@H]6CCCN6C(=O)[C@H](NC(=O)OC)c6ccccc6)[nH]5)cc4)nc3c2)[nH]1)C(C)C` [compound 260] was less than 1 nM; that for `COC(=O)N[C@H](C(=O)N1CCC[C@H]1c1ncc(-c2ccc3ccc(C45CCC(c6cnc([C@@H]7CCCN7C(=O)[C@@H](NC(=O)OC)C(C)C)[nH]6)(CC4)CC5)cc3c2)[nH]1)C(C)C` [compound 261] was 1 to 9.9 nM.
The same measure for `COC(=O)N[C@H](C(=O)N1CCC[C@H]1c1nc(-c2ccc3nc(C45CCC(c6cnc([C@@H]7CCCN7C(=O)[C@@H](NC(=O)OC)C(C)C)[nH]6)(CC4)CC5)ccc3c2)c[nH]1)C(C)C` [compound 262]: less than 1 nM; for `COC(=O)N[C@@H](C(=O)N1CCC[C@H]1c1nc(-c2ccc3nc(C45CCC(c6cnc([C@@H]7CCCN7C(=O)[C@H](NC(=O)OC)c7ccccc7)[nH]6)(CC4)CC5)ccc3c2)c[nH]1)c1ccccc1` [compound 263]: less than 1 nM.
The same measure for `CN(C)[C@@H](C(=O)N1CCC[C@H]1c1nc(-c2ccc3nc(C45CCC(c6cnc([C@@H]7CCCN7C(=O)[C@@H](c7ccccc7)N(C)C)[nH]6)(CC4)CC5)ccc3c2)c[nH]1)c1ccccc1` [compound 264]: 1 to 9.9 nM; for `COC(=O)N[C@H](C(=O)N1CCC[C@H]1c1nc(-c2ccc3nc(C45CCC(c6cnc([C@@H]7CCCN7C(=O)[C@@H](NC(=O)OC)C7CC7)[nH]6)(CC4)CC5)ccc3c2)c[nH]1)C1CC1` [compound 265]: less than 1 nM; for `COC(=O)N[C@@H](C)C(=O)N1CCC[C@H]1c1nc(-c2ccc3nc(C45CCC(c6cnc([C@@H]7CCCN7C(=O)[C@H](C)NC(=O)OC)[nH]6)(CC4)CC5)ccc3c2)c[nH]1` [compound 266]: less than 1 nM.
As for `c1cc2nc(C34CCC(c5cnc([C@@H]6CCCN6)[nH]5)(CC3)CC4)ccc2cc1-c1c[nH]c([C@@H]2CCCN2)n1` [compound 267], the EC50 was greater than 1000 nM.

The values are drawn from patent US8877707B2, “Inhibitors of HCV NS5A” (Presidio Pharmaceuticals, Inc., priority 2010, dated 2014).
